# Data published in patent publication US4396613A, “23-Ester derivatives of DMT and method of using same” (Eli Lilly and Company, priority 1981, dated 1983).
# Experiments:
# [1] = system: Staphylococcus aureus V41; assay: standard agar-dilution assay (MIC); assay type: cell-based; conditions: Staphylococcus aureus V41, penicillin-resistant strain, unit assumed
# Protocol: (§1) The MIC's in Table II were determined by standard agar-dilution assays. The MIC's in Table III were obtained using a conventional broth-dilution microtiter test.
# ^b Penicillinresistant strain
# [2] = system: Staphylococcus aureus X400; assay: standard agar-dilution assay (MIC); assay type: cell-based; conditions: Staphylococcus aureus X400, methicillin-resistant strain, unit assumed
# Protocol: as §1
# ^c Methicillinresistant-strain
# [3] = system: Haemophilus influenzae Holt; assay: standard agar-dilution assay (MIC); assay type: cell-based; conditions: ampicillin-sensitive strain, unit assumed
# Protocol: as §1
# [4] = system: Haemophilus influenzae R252; assay: standard agar-dilution assay (MIC); assay type: cell-based; conditions: Haemophilus influenzae R252, ampicillin-resistant strain, unit assumed
# Protocol: as §1
# [5] = system: Staphylococcus aureus S13E; assay: standard agar-dilution assay (MIC); assay type: cell-based; conditions: unit assumed
# Protocol: as §1
# [6] = system: Staphylococcus aureus X1.1; assay: standard agar-dilution assay (MIC); assay type: cell-based; conditions: unit assumed
# Protocol: as §1
# [7] = system: Staphylococcus epidermidis EPI1; assay: standard agar-dilution assay (MIC); assay type: cell-based; conditions: unit assumed
# Protocol: as §1
# [8] = system: Staphylococcus epidermidis EPI2; assay: standard agar-dilution assay (MIC); assay type: cell-based; conditions: unit assumed
# Protocol: as §1
# Streptococcus Group 9960 = assay: standard agar-dilution assay (MIC); assay type: cell-based; conditions: unit assumed
# Protocol: as §1
# [9] = system: Streptococcus Group D X66; assay: standard agar-dilution assay (MIC); assay type: cell-based; conditions: unit assumed
# Protocol: as §1
# [10] = system: Streptococcus pyogenes C203; assay: standard agar-dilution assay (MIC); assay type: cell-based; conditions: unit assumed
# Protocol: as §1
# [11] = system: Streptococcus pneumoniae Park I; assay type: cell-based; conditions: agar dilution, unit assumed
# Protocol: as §1
# Mycoplasma gallisepticum = assay: conventional broth-dilution microtiter test (MIC); assay type: cell-based; conditions: unit assumed
# Protocol: as §1
# Mycoplasma hyorhinis = assay: conventional broth-dilution microtiter test (MIC); assay type: cell-based; conditions: unit assumed
# Protocol: as §1
# [12] = system: Pasteurella multocida 17E; assay: conventional broth-dilution microtiter test (MIC); assay type: cell-based; conditions: bovine isolate, unit assumed
# Protocol: as §1
# [13] = system: Pasteurella multocida 60A; assay: conventional broth-dilution microtiter test (MIC); assay type: cell-based; conditions: avian isolate, unit assumed
# Protocol: as §1
# Staphylococcus aureus = assay: conventional broth-dilution microtiter test (MIC); assay type: cell-based; conditions: unit assumed
# Protocol: as §1
# Streptococcus sp. 80 = assay: conventional broth-dilution microtiter test (MIC); assay type: cell-based; conditions: unit assumed
# Protocol: as §1
# [14] = system: Streptococcus pyogenes C203; assay: experimental infection in mice (ED50); assay type: in vivo; conditions: doses given 1 and 4 hours postinfection
# Protocol: The 23-ester derivatives of DMT of this invention have shown in vivo antimicrobial activity against experimental bacterial infections caused by gram-positive bacteria. When two doses of test compound were admininstered to mice with experimental infections, the activity observed was measured as an ED50 value [effective dose in mg/kg to protect 50% of the test animals: see Warren Wick, et al., J. Bacteriol. 81, 233-235 (1961)].
# ^a mg/kg × 2; doses given 1 and 4 hours postinfection
# Mycoplasma synoviae = assay: conventional broth-dilution microtiter test (MIC); assay type: cell-based; conditions: unit assumed
# Protocol: as §1
Compound,MIC [1],MIC [2],MIC [3],MIC [4],MIC [5],MIC [6],MIC [7],MIC [8],MIC (Streptococcus Group 9960),MIC [9],MIC [10],MIC [11],MIC (Mycoplasma gallisepticum),MIC (Mycoplasma hyorhinis),MIC [12],MIC [13],MIC (Staphylococcus aureus),MIC (Streptococcus sp. 80),"ED50 ([14]; C203, oral)",MIC (Mycoplasma synoviae),other results
"CCC1OC(=O)CC(O)C(C)C(OC2OC(C)C(OC3CC(C)(O)C(O)C(C)O3)C(N(C)C)C2OC(C)=O)C(CC=O)CC(C)C(=O)C=CC(C)=CC1COC(C)=O (stereo not shown) [Compound 1, 2',23-Di-O-Acetyl-DMT]",1 µg/mL,2 µg/mL,16 µg/mL,16 µg/mL,2 µg/mL,1 µg/mL,2 µg/mL,2 µg/mL,1 µg/mL,2 µg/mL,1 µg/mL,0.25 µg/mL,0.39 µg/mL,3.12 µg/mL,6.25 µg/mL,12.5 µg/mL,0.78 µg/mL,0.78 µg/mL,212 mg/kg,,"ED50 ([14]; C203, sc, subcutaneous): > 20 mg/kg"
"CCC(=O)OCC1C=C(C)C=CC(=O)C(C)CC(CC=O)C(OC2OC(C)C(OC3CC(C)(O)C(O)C(C)O3)C(N(C)C)C2OC(=O)CC)C(C)C(O)CC(=O)OC1CC (stereo not shown) [Compound 3, 2',23-Di-O-Propionyl-DMT]",0.5 µg/mL,2 µg/mL,16 µg/mL,16 µg/mL,1 µg/mL,0.5 µg/mL,0.5 µg/mL,1 µg/mL,1 µg/mL,1 µg/mL,0.5 µg/mL,0.5 µg/mL,0.78 µg/mL,1.56 µg/mL,6.25 µg/mL,12.5 µg/mL,0.78 µg/mL,0.78 µg/mL,117 mg/kg,0.195 µg/mL,"ED50 ([14]; C203, sc, subcutaneous): > 20 mg/kg"
"CCC(=O)OCC1C=C(C)C=CC(=O)C(C)CC(CC=O)C(OC2OC(C)C(OC3CC(C)(O)C(O)C(C)O3)C(N(C)C)C2O)C(C)C(O)CC(=O)OC1CC (stereo not shown) [Compound 4, 23-O-Propionyl-DMT]",0.5 µg/mL,2 µg/mL,32 µg/mL,32 µg/mL,1 µg/mL,1 µg/mL,1 µg/mL,1 µg/mL,1 µg/mL,1 µg/mL,0.5 µg/mL,,0.39 µg/mL,3.12 µg/mL,6.25 µg/mL,25 µg/mL,0.78 µg/mL,0.39 µg/mL,300 mg/kg,,"ED50 ([14]; C203, sc, subcutaneous): 13 mg/kg"
CCC1OC(=O)CC(O)C(C)C(OC2OC(C)C(OC3CC(C)(O)C(O)C(C)O3)C(N(C)C)C2OC(C)=O)C(CC=O)CC(C)C(=O)C=CC(C)=CC1COC(=O)C12CC3CC(CC(C3)C1)C2 (stereo not shown) [Compound 23],2 µg/mL,2 µg/mL,> 128 µg/mL,> 128 µg/mL,2 µg/mL,2 µg/mL,2 µg/mL,4 µg/mL,4 µg/mL,4 µg/mL,2 µg/mL,1 µg/mL,6.25 µg/mL,25 µg/mL,50 µg/mL,> 50 µg/mL,6.25 µg/mL,< 0.78 µg/mL,,1.56 µg/mL,
CCC1OC(=O)CC(O)C(C)C(OC2OC(C)C(OC3CC(C)(O)C(O)C(C)O3)C(N(C)C)C2OC(C)=O)C(CC=O)CC(C)C(=O)C=CC(C)=CC1COC(=O)OC (stereo not shown) [Compound 24],0.5 µg/mL,0.5 µg/mL,16 µg/mL,8 µg/mL,0.5 µg/mL,0.5 µg/mL,0.5 µg/mL,0.5 µg/mL,0.5 µg/mL,0.5 µg/mL,0.25 µg/mL,0.06 µg/mL,0.78 µg/mL,1.56 µg/mL,6.25 µg/mL,12.5 µg/mL,3.12 µg/mL,0.78 µg/mL,,0.78 µg/mL,
CCC1OC(=O)CC(O)C(C)C(OC2OC(C)C(OC3CC(C)(O)C(O)C(C)O3)C(N(C)C)C2O)C(CC=O)CC(C)C(=O)C=CC(C)=CC1COC(=O)OC (stereo not shown) [Compound 25],0.5 µg/mL,0.5 µg/mL,8 µg/mL,8 µg/mL,0.25 µg/mL,0.25 µg/mL,0.5 µg/mL,,0.5 µg/mL,0.5 µg/mL,0.25 µg/mL,0.06 µg/mL,0.097 µg/mL,1.56 µg/mL,6.25 µg/mL,12.5 µg/mL,1.56 µg/mL,0.78 µg/mL,> 100 mg/kg,0.097 µg/mL,"ED50 ([14]; C203, sc, subcutaneous): 7.6 mg/kg"
CCC1OC(=O)CC(O)C(C)C(OC2OC(C)C(OC3CC(C)(O)C(O)C(C)O3)C(N(C)C)C2O)C(CC=O)CC(C)C(=O)C=CC(C)=CC1COC(=O)NCCCCCCCCN (stereo not shown) [Compound 27],2 µg/mL,8 µg/mL,32 µg/mL,32 µg/mL,4 µg/mL,2 µg/mL,2 µg/mL,4 µg/mL,4 µg/mL,4 µg/mL,1 µg/mL,0.25 µg/mL,0.78 µg/mL,3.12 µg/mL,25 µg/mL,50 µg/mL,6.25 µg/mL,0.78 µg/mL,,3.12 µg/mL,
CCC1OC(=O)CC(O)C(C)C(OC2OC(C)C(OC3CC(C)(O)C(O)C(C)O3)C(N(C)C)C2O)C(CC=O)CC(C)C(=O)C=CC(C)=CC1COC(=O)N1CCC(O)CC1 (stereo not shown) [Compound 28],1 µg/mL,2 µg/mL,8 µg/mL,16 µg/mL,2 µg/mL,1 µg/mL,0.5 µg/mL,2 µg/mL,1 µg/mL,1 µg/mL,0.25 µg/mL,0.125 µg/mL,0.39 µg/mL,0.78 µg/mL,12.5 µg/mL,25 µg/mL,1.56 µg/mL,0.39 µg/mL,,0.78 µg/mL,
CCC1OC(=O)CC(O)C(C)C(OC2OC(C)C(OC3CC(C)(O)C(O)C(C)O3)C(N(C)C)C2O)C(CC=O)CC(C)C(=O)C=CC(C)=CC1COC(=O)NCCN1CCOCC1 (stereo not shown) [Compound 29],1 µg/mL,4 µg/mL,16 µg/mL,16 µg/mL,2 µg/mL,1 µg/mL,1 µg/mL,2 µg/mL,2 µg/mL,2 µg/mL,0.5 µg/mL,0.125 µg/mL,0.39 µg/mL,6.25 µg/mL,12.5 µg/mL,25 µg/mL,1.56 µg/mL,0.78 µg/mL,,1.56 µg/mL,
